Data as given in ChEMBL document CHEMBL5126530, “Building on endogenous lipid mediators to design synthetic receptor ligands” (Eur J Med Chem, 2022).

Experiments:
Format in all cases: functional, cell-based
[1] = target: Prostaglandin E2 receptor EP2 subtype (Homo sapiens, UniProt P43116); test: Agonist activity at human EP2 expressed in HEK293 cells assessed as increase in cAMP level incubated for 20 mins measured after 60 mins addition of cAMP detect reagent by HTRF analysis
[2] = target: T1, Prostaglandin D2 receptor (Homo sapiens, UniProt Q13258); test: Agonist activity at human DP1 expressed in human 1321N1 cells assessed as increase in cAMP level incubated for 20 mins measured after 60 mins addition of cAMP detect reagent by HTRF analysis
T1 sequence (Q13258 whole entry): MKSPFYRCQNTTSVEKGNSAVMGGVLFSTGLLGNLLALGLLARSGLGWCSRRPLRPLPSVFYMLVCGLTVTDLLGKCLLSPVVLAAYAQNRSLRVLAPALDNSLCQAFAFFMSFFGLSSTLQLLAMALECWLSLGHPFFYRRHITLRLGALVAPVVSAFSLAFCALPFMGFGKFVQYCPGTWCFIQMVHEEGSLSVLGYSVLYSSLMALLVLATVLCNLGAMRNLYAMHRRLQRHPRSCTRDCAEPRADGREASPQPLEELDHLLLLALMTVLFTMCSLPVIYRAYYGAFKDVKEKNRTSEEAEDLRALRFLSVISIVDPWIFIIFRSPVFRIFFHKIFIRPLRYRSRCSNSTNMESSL

[3] = target: T2, Prostaglandin E2 receptor EP1 subtype (Homo sapiens, UniProt P34995); test: Agonist activity at human EP1 expressed in HEK293 cells assessed as increase in cAMP level incubated for 20 mins measured after 60 mins addition of cAMP detect reagent by HTRF analysis
T2 sequence (P34995 whole entry): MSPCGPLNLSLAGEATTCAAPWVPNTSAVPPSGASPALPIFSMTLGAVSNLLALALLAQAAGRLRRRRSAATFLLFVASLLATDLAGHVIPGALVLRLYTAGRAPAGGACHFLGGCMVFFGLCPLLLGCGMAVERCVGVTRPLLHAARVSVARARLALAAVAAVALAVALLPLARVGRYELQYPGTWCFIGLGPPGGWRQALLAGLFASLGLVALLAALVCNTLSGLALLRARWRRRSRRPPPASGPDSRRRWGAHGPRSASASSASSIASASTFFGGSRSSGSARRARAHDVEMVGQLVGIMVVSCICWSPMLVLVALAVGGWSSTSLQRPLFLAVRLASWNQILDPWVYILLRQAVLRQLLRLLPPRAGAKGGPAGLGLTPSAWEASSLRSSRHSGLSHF

Prostacyclin receptor = Prostacyclin receptor (Homo sapiens, UniProt P43119); test: Agonist activity at human IP expressed in HEK293 cells assessed as increase in cAMP level incubated for 20 mins measured after 60 mins addition of cAMP detect reagent by HTRF analysis
Chain of Prostacyclin receptor (P43119 whole entry): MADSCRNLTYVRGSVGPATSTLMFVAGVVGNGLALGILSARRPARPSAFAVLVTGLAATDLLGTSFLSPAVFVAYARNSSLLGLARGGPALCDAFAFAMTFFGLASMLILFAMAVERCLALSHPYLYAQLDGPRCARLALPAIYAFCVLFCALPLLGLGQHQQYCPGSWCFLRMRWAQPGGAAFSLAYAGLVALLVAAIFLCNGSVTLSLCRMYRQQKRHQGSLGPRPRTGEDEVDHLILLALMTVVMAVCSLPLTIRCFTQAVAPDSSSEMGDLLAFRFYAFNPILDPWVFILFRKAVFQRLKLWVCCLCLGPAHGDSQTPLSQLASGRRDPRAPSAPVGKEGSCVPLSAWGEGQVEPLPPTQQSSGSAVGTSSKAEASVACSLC

Chain of Prostaglandin E2 receptor EP2 subtype (P43116 whole entry): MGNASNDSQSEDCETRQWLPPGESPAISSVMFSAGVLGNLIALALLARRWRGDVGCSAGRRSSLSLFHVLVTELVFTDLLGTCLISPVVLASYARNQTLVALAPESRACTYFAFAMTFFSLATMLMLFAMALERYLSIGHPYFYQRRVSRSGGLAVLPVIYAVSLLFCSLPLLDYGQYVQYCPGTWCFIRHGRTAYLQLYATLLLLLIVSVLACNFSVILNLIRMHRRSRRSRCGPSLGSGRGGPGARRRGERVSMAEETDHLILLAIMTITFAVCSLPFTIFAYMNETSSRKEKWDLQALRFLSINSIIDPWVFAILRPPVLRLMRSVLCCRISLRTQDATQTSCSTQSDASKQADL

Row | Structure (SMILES) | EC50 [1] [nM] | EC50 [2] [nM] | EC50 [3] [nM] | EC50 (Prostacyclin receptor) [nM]
1 | CC#CCC(C)[C@H](O)/C=C/[C@@H]1[C@H]2C/C(=C/CCCC(=O)O)C[C@H]2C[C@H]1O (some centres not stated) [ILOPROST] | 2090 | 2060 | 0.3 | –
2 | CCCCC[C@H](O)CC[C@@H]1[C@H]2Cc3cccc(OCC(=O)O)c3C[C@H]2C[C@H]1O [TREPROSTINIL] | 6.2 | 0.6 | 285 | 1.9
